Results published in patent US4143055A, “2,4,6-Trisubstituted-2,3-dihydro-benzofuran derivatives” (Gruppo Lepetit S.p.A., priority 1978, dated 1979).

Key:
[1] = test system: carrageenin induced edema; test: Carrageenin induced edema in the rat paw; format: in vivo; conditions: dosage around 1/5 of its LD50
Experimental: (§1) The antiinflammatory activity was ascertained by means of several testing methods; in one, the ability of the compounds of the invention to reduce the edema induced in the rat paw by injection of carrageenin was evaluated and the test was performed according to the methodology described by C. A. Winter et al. in Proc. Soc. Exptl. Biol. Med. 111, 544, (1962). In another it was investigated the reduction by the test compounds of the weight of the granuloma formed on a cotton pellet implanted subcutaneously in a rat, following the method described by Meier et al. in Experientia 6, 469, (1950).
(§2) Representative experiments have shown that the compounds of Example 11, namely 2,3-dihydro-6-methoxy-N,2-dimethyl-4-benzofuranamine causes a reduction of the carrageenin induced edema of around 70 percent over the controls even when it is administered at an absolutely safe dosage i.e., around 1/5 of its LD50. In the granuloma cotton pellet test the same compound at the same dosage reduces the weight of the granuloma of more than 40 percent again over the controls.

[2] = test system: granuloma formed on a cotton pellet implanted subcutaneously; test: Granuloma cotton pellet test; format: in vivo; conditions: rat; same dosage, around 1/5 of its LD50
Experimental: as §1, §2

[3] = Acute oral toxicity in rats (LD50, Lichtfield and Wilcoxon); conditions: rat, in vivo, rats p.o. (table)
Experimental: The toxicities were determined according to Lichtfield and Wilcoxon, Journ. Pharm. Expt. Ther., 96, 99, 1949.

[4] = test system: adjuvant induced arthritis; test: Adjuvant induced arthritis test in rats; format: in vivo; conditions: for % reduction of the volume of the hind paws over the controls: rats p.o., Dose 200 mg/kg
From the text: However, the most important pharmacological aspect of the compounds of the present invention is that they are effective also in the adjuvant induced arthritis test in rats. Said test is absolutely meaningful in that adjuvant arthritis is one of the best pharmacological parameters with which a pharmacologist can investigate compounds as to their possible antinflammatory activity, owing to the parallelism of effects existing between it and some articulation diseases observed in humans (see Pearson, C. M., Arthritis and allied conditions, page 119, Lea and Febiger Publ., 1967 and Pearson, C. M., J. Chronic Diseases, 16, 863, 1963).
The adjuvant induced arthritis test was performed as described by B. B. Newbould in Brit. Jour. Pharmacol., 21, 127, (1963). The measure of effectiveness of the compounds in this test is given by their ability in reducing the volume of the hind paws of the laboratory animals. […] The obtained results, which are summarized in the following table, were obtained by testing the compounds at a dosage corresponding to 1/5 of their LD50.

Q: Which “reduction of the carrageenin induced edema over the controls” value [1] does the source give for CNc1cc(OC)cc2c1CC(C)O2 (stereo not drawn) [Example 11, 2,3-dihydro-6-methoxy-N,2-dimethyl-4-benzofuranamine] here?
A: around 70%

Q: And the “reduction of the weight of the granuloma over the controls” value [2]?
A: more than 40%

Q: What about the LD50 [3] of the same compound?
A: 2800 mg/kg

Q: What about the “% reduction of the volume of the hind paws over the controls” value [4] of the same compound?
A: 36%

Q: And the “activity in the adjuvant induced arthritis test compared with acetylsalicylic acid” value ([4]; rats, dosage corresponding to 1/5 of their LD50)?
A: significantly more active

Q: With CC(=O)Oc1ccccc1C(=O)O [acetylsalicylic acid, reference compound] as the compound, how does the “% reduction of the volume of the hind paws over the controls” value [4] read?
A: 25%
